Starred links: 1 amine or outer side, 2 acyl side, 3 side chain; linkers in the order of their positions; H or OH if unused. Positions of bridges follow the written chain, without caps; N, C: chain ends. Residues, ends and D or L forms follow the SMILES beside them. CO = O=C([*:1])[*:2]

The test deals with T1, IL17-RE-IL-17C (Homo sapiens, UniProt Q8NFR9+Q9P0M4).
T1 sequence (Q9P0M4 whole entry): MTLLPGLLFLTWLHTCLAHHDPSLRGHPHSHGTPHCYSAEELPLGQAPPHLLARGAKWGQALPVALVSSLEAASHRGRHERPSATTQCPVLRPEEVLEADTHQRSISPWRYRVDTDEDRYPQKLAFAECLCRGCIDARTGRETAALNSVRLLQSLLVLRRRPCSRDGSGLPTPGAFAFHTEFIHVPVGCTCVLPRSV
T1 sequence (Q8NFR9 whole entry): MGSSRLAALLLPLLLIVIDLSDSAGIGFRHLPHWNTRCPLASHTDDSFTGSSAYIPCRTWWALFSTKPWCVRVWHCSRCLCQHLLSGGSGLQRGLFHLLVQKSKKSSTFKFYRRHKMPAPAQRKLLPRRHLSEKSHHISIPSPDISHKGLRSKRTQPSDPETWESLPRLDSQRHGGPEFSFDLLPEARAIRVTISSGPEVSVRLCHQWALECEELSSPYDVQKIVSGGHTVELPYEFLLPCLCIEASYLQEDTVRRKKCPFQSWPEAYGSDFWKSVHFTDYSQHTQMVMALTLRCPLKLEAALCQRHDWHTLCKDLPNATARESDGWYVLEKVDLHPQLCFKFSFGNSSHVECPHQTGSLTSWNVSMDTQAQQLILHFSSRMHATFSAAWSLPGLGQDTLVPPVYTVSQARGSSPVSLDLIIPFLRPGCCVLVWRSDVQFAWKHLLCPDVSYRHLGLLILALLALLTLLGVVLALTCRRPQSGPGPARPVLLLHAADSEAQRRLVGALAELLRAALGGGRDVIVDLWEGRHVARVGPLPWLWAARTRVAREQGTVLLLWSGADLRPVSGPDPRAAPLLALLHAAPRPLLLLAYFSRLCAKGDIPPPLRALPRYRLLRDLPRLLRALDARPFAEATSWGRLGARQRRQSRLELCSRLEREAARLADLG
Kind of test: Inhibition of IL-17C/IL-17RE interaction (unknown origin) incubated for 1.5 hrs by ELISA method. Format: protein-complex assay. (In general: An ELISA detects its analyte on a solid surface through an enzyme-linked reagent.)
The compound `CC[C@H](C)[C@@H]1NC(=O)[C@H](Cc2cnc[nH]2)NC(=O)[C@H](Cc2ccc(O)cc2)NC(=O)CSC[C@@H](C(=O)NCC(N)=O)NC(=O)CNC(=O)[C@H](CC(C)C)NC(=O)[C@H](CO)NC(=O)CNC(=O)[C@H](Cc2ccc(O)cc2)NC(=O)[C@H](CC(C)C)NC(=O)[C@H](CO)NC(=O)[C@H](C)NC(=O)[C@H](Cc2ccc(O)cc2)NC(=O)[C@@H](Cc2ccc(O)cc2)NC1=O` came in with an IC50 of 0.0049 µM.

The compound `CC[C@H](C)[C@@H]1NC(=O)[C@H](Cc2c[nH]cn2)NC(=O)[C@H](Cc2ccc(O)cc2)NC(=O)CSC[C@@H](C(=O)NCC(N)=O)NC(=O)CNC(=O)[C@H](CC(C)C)NC(=O)[C@H]([C@H](C)O)NC(=O)CNC(=O)[C@H](Cc2ccc(O)cc2)NC(=O)[C@H](CC(C)C)NC(=O)[C@H](CO)NC(=O)[C@H](Cc2ccc(O)cc2)NC(=O)[C@H](Cc2ccc(O)cc2)NC(=O)[C@H](Cc2ccc(O)cc2)NC1=O` returned an IC50 of 0.0029 µM. The result for `CC(C)C[C@@H]1NC(=O)[C@H](C)NC(=O)[C@H](CCCNC(=N)N)NC(=O)[C@H](Cc2ccc(O)cc2)NC(=O)[C@H](Cc2ccc(O)cc2)NC(=O)[C@H](Cc2c[nH]cn2)NC(=O)[C@H](Cc2c[nH]cn2)NC(=O)[C@H](Cc2ccc(O)cc2)NC(=O)SC[C@@H](C(=O)NCC(N)=O)NC(=O)CNC(=O)[C@H](CC(C)C)NC(=O)[C@H](CCC(=O)O)NC(=O)CNC(=O)[C@H](Cc2ccc(O)cc2)NC1=O` (YHHYYRALYGELGCG-NH2; linker N-14 via CO) reads 0.254 µM; that for `CC[C@H](C)[C@@H]1NC(=O)[C@H](CCCNC(=N)N)NC(=O)[C@H](Cc2ccc(O)cc2)NC(=O)[C@H](Cc2ccc(O)cc2)NC(=O)C(C)NC(=O)[C@H](Cc2c[nH]cn2)NC(=O)[C@H](Cc2ccc(O)cc2)NC(=O)CSC[C@@H](C(=O)NCC(N)=O)NC(=O)CNC(=O)[C@H](CC(C)C)NC(=O)[C@H](CCC(=O)O)NC(=O)CNC(=O)[C@H](Cc2ccc(O)cc2)NC(=O)[C@H](CC(C)C)NC1=O` (single isomer, unassigned), 0.529 µM; that for `CC[C@H](C)[C@@H]1NC(=O)[C@H](CCCNC(=N)N)NC(=O)[C@H](Cc2ccc(O)cc2)NC(=O)[C@H](Cc2ccc(O)cc2)NC(=O)[C@H](Cc2c[nH]cn2)NC(=O)[C@H](Cc2c[nH]cn2)NC(=O)[C@H](Cc2ccc(O)cc2)NC(=O)CSC[C@@H](C(=O)NCC(N)=O)NC(=O)[C@H](CO)NC(=O)[C@H](CC(C)C)NC(=O)[C@H](CCC(=O)O)NC(=O)CNC(=O)[C@H](Cc2ccc(O)cc2)NC(=O)[C@H](CC(C)C)NC1=O` (stereo in doubt), more than 30 µM. Turning to `CC[C@H](C)[C@@H]1NC(=O)[C@H](CCCNC(=N)N)NC(=O)[C@H](Cc2ccc(O)cc2)NC(=O)[C@H](Cc2ccc(O)cc2)NC(=O)[C@H](Cc2c[nH]cn2)NC(=O)[C@H](C)NC(=O)[C@H](Cc2ccc(O)cc2)NC(=O)CSC[C@@H](C(=O)NCC(N)=O)NC(=O)CNC(=O)[C@H](CC(C)C)NC(=O)[C@H](CCC(=O)O)NC(=O)CNC(=O)[C@H](Cc2ccc(O)cc2)NC(=O)[C@H](CC(C)C)NC1=O` ({CH2CO}-YAHYYRILYGELGCG-NH2; thioether N-14), the IC50 is more than 30 µM.

`CC(C)C[C@@H]1NC(=O)[C@H](Cc2c[nH]c3ccccc23)NC(=O)[C@H](Cc2ccccc2)NC(=O)[C@H](CC(N)=O)NC(=O)[C@H](Cc2ccc(O)cc2)NC(=O)[C@H](CO)NC(=O)[C@H](Cc2ccc(O)cc2)NC(=O)[C@H](CCCNC(=N)N)NC(=O)[C@H](CC(C)C)NC(=O)[C@H](CC(=O)O)NC(=O)[C@H](Cc2ccc(O)cc2)NC(=O)CSC[C@@H](C(=O)NCC(N)=O)NC(=O)[C@H](C)NC1=O` ({CH2CO}-YDLRYSYNFWLACG-NH2; thioether N-13) displayed an IC50 of more than 30 µM.

`CC[C@H](C)[C@@H]1NC(=O)[C@H](Cc2c[nH]c3ccccc23)NC(=O)[C@H](C)NC(=O)[C@H](CC(=O)O)NC(=O)[C@H](Cc2ccccc2)NC(=O)[C@H](Cc2c[nH]cn2)NC(=O)[C@H](Cc2ccc(O)cc2)NC(=O)CSC[C@@H](C(=O)NCC(N)=O)NC(=O)[C@H](CC(C)C)NC(=O)[C@H](CO)NC(=O)[C@H](CCCNC(=N)N)NC(=O)[C@H](C)NC1=O` ({CH2CO}-YHFDAWIARSLCG-NH2; thioether N-12) yielded an IC50 of more than 30 µM.

`CC[C@H](C)[C@@H]1NC(=O)[C@H](Cc2c[nH]c3ccccc23)NC(=O)[C@H](C)NC(=O)[C@H](CC(=O)O)NC(=O)[C@H](Cc2ccccc2)NC(=O)[C@H](Cc2c[nH]cn2)NC(=O)[C@H](Cc2ccc(O)cc2)NC(=O)CSC[C@@H](C(=O)NCC(N)=O)NC(=O)[C@H](CCC(N)=O)NC(=O)[C@H](CC(C)C)NC(=O)[C@H](CC(C)C)NC(=O)[C@H]([C@@H](C)O)NC(=O)[C@H](C)NC1=O` ({CH2CO}-YHFDAWIATLLQCG-NH2; thioether N-13): the IC50 is more than 30 µM.

Take `CC(C)C[C@@H]1NC(=O)[C@H](Cc2c[nH]c3ccccc23)NC(=O)[C@H](C)NC(=O)[C@H](CC(=O)O)NC(=O)[C@H](Cc2ccccc2)NC(=O)[C@H](Cc2c[nH]cn2)NC(=O)[C@H](Cc2ccc(O)cc2)NC(=O)CSC[C@@H](C(=O)NCC(=O)O)NC(=O)[C@H](CC(C)C)NC(=O)[C@H](Cc2ccc(O)cc2)NC(=O)[C@H](CC(=O)O)NC(=O)[C@H](CCCCN)NC1=O` ({CH2CO}-YHFDAWLKDYLCG-OH; thioether N-12): the IC50 is more than 30 µM. With `CC(C)C[C@@H]1NC(=O)[C@H](Cc2ccc(O)cc2)NC(=O)[C@H](CC(=O)O)NC(=O)[C@H](CCCCN)NC(=O)[C@H](CC(C)C)NC(=O)[C@H](Cc2c[nH]c3ccccc23)NC(=O)[C@H](C)NC(=O)[C@H](CC(=O)O)NC(=O)[C@H](Cc2ccccc2)NC(=O)[C@H](Cc2c[nH]cn2)NC(=O)[C@H](Cc2ccc(O)cc2)NC(=O)CSC[C@@H](C(=O)NCC(N)=O)NC(=O)CNC1=O` ({CH2CO}-YHFDAWLKDYLGCG-NH2; thioether N-13) the figure was more than 30 µM; with `CC(C)C[C@@H]1NC(=O)[C@H](Cc2c[nH]c3ccccc23)NC(=O)[C@H](C)NC(=O)[C@H](CC(=O)O)NC(=O)[C@H](Cc2ccccc2)NC(=O)[C@H](Cc2c[nH]cn2)NC(=O)[C@H](Cc2ccc(O)cc2)NC(=O)CSC[C@@H](C(=O)NCC(N)=O)NC(=O)[C@H](CC(C)C)NC(=O)[C@H](CC(C)C)NC(=O)[C@H]([C@@H](C)O)NC(=O)[C@H](CO)NC1=O` ({CH2CO}-YHFDAWLSTLLCG-NH2; thioether N-12), more than 30 µM; with `CC(C)C[C@@H]1NC(=O)[C@H](Cc2c[nH]c3ccccc23)NC(=O)[C@H](Cc2c[nH]cn2)NC(=O)[C@H](CC(=O)O)NC(=O)[C@H](Cc2ccccc2)NC(=O)[C@H](Cc2c[nH]cn2)NC(=O)[C@H](Cc2ccc(O)cc2)NC(=O)CSC[C@@H](C(=O)NCC(N)=O)NC(=O)[C@H](CC(C)C)NC(=O)[C@H](CC(C)C)NC(=O)[C@H](Cc2c[nH]cn2)NC(=O)[C@H](C)NC1=O` ({CH2CO}-YHFDHWLAHLLCG-NH2; thioether N-12), more than 30 µM. On to `CC[C@H](C)[C@@H]1NC(=O)[C@H](CC(C)C)NC(=O)[C@H](C)NC(=O)[C@H](CC(C)C)NC(=O)[C@H](Cc2c[nH]c3ccccc23)NC(=O)[C@H](CC(N)=O)NC(=O)[C@H](CC(=O)O)NC(=O)[C@H](Cc2ccccc2)NC(=O)[C@H](Cc2c[nH]cn2)NC(=O)[C@H](Cc2ccc(O)cc2)NC(=O)CSC[C@@H](C(=O)NCC(N)=O)NC(=O)[C@H](CC(C)C)NC1=O` ({CH2CO}-YHFDNWLALILCG-NH2; thioether N-12), for which the IC50 was more than 30 µM.

As to `CC(C)C[C@@H]1NC(=O)[C@H](Cc2c[nH]c3ccccc23)NC(=O)[C@H](CC(N)=O)NC(=O)[C@H](CC(=O)O)NC(=O)[C@H](Cc2ccccc2)NC(=O)[C@H](Cc2c[nH]cn2)NC(=O)[C@H](Cc2ccc(O)cc2)NC(=O)CSC[C@@H](C(=O)NCC(N)=O)NC(=O)[C@H](CC(C)C)NC(=O)[C@H](Cc2ccccc2)NC(=O)[C@H](C(C)C)NC(=O)[C@H](CCCNC(=N)N)NC1=O` ({CH2CO}-YHFDNWLRVFLCG-NH2; thioether N-12), the IC50 is more than 30 µM. The result for `CC(C)C[C@@H]1NC(=O)[C@H](CC(C)C)NC(=O)[C@H](CCCCN)NC(=O)[C@H](CO)NC(=O)[C@H](CC(C)C)NC(=O)[C@H](Cc2c[nH]c3ccccc23)NC(=O)[C@H](CC(N)=O)NC(=O)[C@H](CC(=O)O)NC(=O)[C@H](Cc2ccccc2)NC(=O)[C@H](Cc2c[nH]cn2)NC(=O)[C@H](Cc2ccc(O)cc2)NC(=O)CSC[C@@H](C(=O)NCC(N)=O)NC(=O)[C@H](CC(=O)O)NC1=O` ({CH2CO}-YHFDNWLSKLLDCG-NH2; thioether N-13) reads more than 30 µM; that for `CC(C)C[C@@H]1NC(=O)[C@H](Cc2c[nH]c3ccccc23)NC(=O)[C@H](CO)NC(=O)[C@H](CC(=O)O)NC(=O)[C@H](Cc2ccccc2)NC(=O)[C@H](Cc2c[nH]cn2)NC(=O)[C@H](Cc2ccc(O)cc2)NC(=O)CSC[C@@H](C(=O)NCC(N)=O)NC(=O)[C@H](CCCCN)NC(=O)[C@H](CC(C)C)NC(=O)[C@H](CCCNC(=N)N)NC(=O)[C@H](CCCCN)NC(=O)[C@H](C)NC1=O` ({CH2CO}-YHFDSWLAKRLKCG-NH2; thioether N-13), more than 30 µM.

The term IC50 denotes the midpoint of a concentration-inhibition curve. Low readings indicate higher potency, high ones lower potency.

For the origin of these results see ChEMBL document CHEMBL5360618, “PepScaf: Harnessing Machine Learning with In Vitro Selection toward De Novo Macrocyclic Peptides against IL-17C/IL-17RE Interaction” (J Med Chem, 2023).
